From patent publication US9200319B2, “Nucleotides and nucleosides and methods for their use in DNA sequencing” (Lasergen, Inc., priority 2008, dated 2015)

Experiment: chemical cleavage by palladium-catalysed hydrogenolysis
Conditions: hydrogen, ethanol, room temperature; for time to complete cleavage to thymidine: heterogenous catalyst, palladium on activated carbon (10 wt. %), TLC/HPLC
Protocol: Chemical Cleavage Using Heterogenous Palladium Catalyst: To a solution of 5-(benzyloxy)methyl-2′-deoxyuridine (29 mg, 0.082 mmol) in absolute ethanol (2 mL) under a nitrogen atmosphere was added 10 mg of palladium on activated carbon (10 wt. %, 10 mg) (CAUTION: flammable solid! Ensure handling in oxygen-free atmosphere). The mixture was flushed with hydrogen gas and stirred at room temperature for 30 minutes while being monitored by TLC every five minutes. The mixture was filtered, concentrated under reduced pressure, and dried under vacuum to yield thymidine (18 mg, 88%) that was identified by comparison to the authentic sample (TLC and ^1H NMR).
Chemical Cleavage Using Homogenous Palladium Catalyst: To a solution of 5-(benzyloxy)methyl-2′-deoxyuridine (3.48 mg, 0.01 mmol) in absolute ethanol (0.1 mL) under a nitrogen atmosphere a solution of sodium tetrachloropalladate (II) (0.6 mg, 0.002 mmol) in absolute ethanol (0.9 mL) was added. The mixture was flushed with hydrogen gas and stirred at room temperature while being monitored by TLC every five minutes. After 20 minutes TLC indicated complete disappearance of starting material. The sole cleavage product was identified to be thymidine by comparison to the authentic sample on TLC.
(§1) Chemical Cleavage Using Heterogenous Palladium Catalyst: To a solution of 5-(2-isopropylbenzyloxy)methyl-2′-deoxyuridine in absolute ethanol (10 mM, 1 mL) under a nitrogen atmosphere was added of palladium on activated carbon (10 wt. %, 2 mg) (CAUTION: flammable solid! Ensure handling in oxygen-free atmosphere). The mixture was flushed with hydrogen gas and stirred at room temperature for five minutes while being monitored by TLC every one minute. After five minutes TLC indicated complete disappearance of starting material. The sole cleavage product was identified to be thymidine by comparison to the authentic sample on TLC.
as §1, with “To” for “To a”, “5-(2-phenylbenzyloxy)methyl-2′-deoxyuridine” for “5-(2-isopropylbenzyloxy)methyl-2′-deoxyuridine”, “added” for “added of”, “1” for “one”
as §1, with “5-(2,6-dimethylbenzyloxy)methyl-2′-deoxyuridine” for “5-(2-isopropylbenzyloxy)methyl-2′-deoxyuridine”, “added” for “added of”, “1” for “one”
To a solution of 5-benzyloxy-2′-deoxyuridine (10 mg) in ethanol (1 mL) was added Pd/C (10%, 10 mg), and the mixture was stirred for five minutes. Hydrogen was introduced to the system via a balloon and the reaction mixture was stirred at room temperature. Aliquots (5 μL) were taken out from the reaction mixture at various time point intervals and were analyzed by thin layer chromatography and HPLC. Complete cleavage to thymidine was observed after ten minutes at room temperature (Scheme 42 and FIG. 4). The intermediate of the cleavage was identified to be 5-hydroxymethyl-dU generated from initial removal of benzyl group, and HOMedU was further reduced to thymidine. […]

Row | Compound | time to complete cleavage to thymidine | time to complete disappearance of starting material (cleavage to thymidine) (homogenous catalyst, sodium tetrachloropalladate (II), TLC) [min]
1 | O=c1[nH]c(=O)n([C@H]2C[C@H](O)[C@@H](CO)O2)cc1COCc1ccccc1-c1ccccc1 [5-(2-phenylbenzyloxy)methyl-2′-deoxyuridine] | five | 
2 | Cc1cccc(C)c1COCc1cn([C@H]2C[C@H](O)[C@@H](CO)O2)c(=O)[nH]c1=O [5-(2,6-dimethylbenzyloxy)methyl-2′-deoxyuridine] | five | 
3 | CC(C)C(OCc1cn([C@H]2C[C@H](O)[C@@H](CO)O2)c(=O)[nH]c1=O)c1ccccc1 (stereo partly drawn) [5-(1-phenyl-2-methyl-propyloxy)methyl-2′-deoxyuridine] | 240 min | 
4 | CC(C)c1ccccc1COCc1cn([C@H]2C[C@H](O)[C@@H](CO)O2)c(=O)[nH]c1=O [5-(2-isopropylbenzyloxy)methyl-2′-deoxyuridine] | five | 
5 | O=c1[nH]c(=O)n([C@H]2C[C@H](O)[C@@H](CO)O2)cc1COCc1ccccc1 [5-(benzyloxy)methyl-2′-deoxyuridine] | ten | 20
